Experiments:
B16F10 cells = experiment: SYTOXGreen uptake (membrane permeabilization), B16F10 cells; type: cell-based, murine
Protocol: Figure 2 Psd1 promotes B16F10 live cell membrane permeabilization as monitored by SYTOX Green fluorescence. (A) Psd1 untreated and hydrogen peroxide-treated B16F10 cells. (B) A total of 1.5 × 10^4 B16F10 cells were incubated with 3 or 50 µM Psd1 for 30 min. (C) 1.5 × 10^4 B16F10 cells were incubated with 50 µM Psd1 for 1 h. All experiments were performed at 37 °C. Nucleus staining is shown in green (SYTOXGreen), and mitochondria are shown in red (MitoTracker Red CMXRos). Images are shown at 20× magnification. […] (E) Psd1 induces apoptosis in B16F10 cells. B16F10 cells were treated with 50 µM Psd1 for 24 h and labeled with propidium iodide, and the DNA content was analyzed by flow cytometry for the sub-G0/G1 profile. At least two independent experiments were performed. TEXT PRINTED IN THE PICTURE: (E) Control: Sub-G1: 4.4% | (E) Psd1: Sub-G1: 60.6% (50μM)
Images were obtained in the X, Y, and Z planes of the image, giving the image a 3-dimensional depth (Z-stack) at 100× magnification with a Zeiss Cell Observer Yokogawa Spinning Disk confocal microscope (Cell Observed SD, Carl-Zeiss, Oberkochen, Germany) located in the Microscopia Óptica de Luz Gustavo de Oliveira Castro (Plamol) platform in Universidade Federal do Rio de Janeiro. To measure the mean fluorescence intensity (MFI), Zen Lite Blue (Carl-Zeiss, Oberkochen, Germany) software was used. On average, thirty cells per field were analyzed in fourteen fields by experiments. Then, the region of interest (ROI), specifically the nucleus and mitochondria, was tagged on the cells photographed for fluorescence analysis, which is given by the software from the intensity of the pixels. Subsequently, the statistical test was performed using GraphPad Prism version 7.4, and the values presented are averages with the corresponding standard deviations (SDs).
B16F10 cells were trypsinized and counted, and 1.5 × 10^4 cells/well in DMEM containing 0.1% (w/v) bovine serum albumin BSA were plated in a cell-view glass bottom culture dish with four compartments (Thermo Fisher Scientific Inc, Maryland, USA) and then incubated at 37 °C overnight to adhere. Post-treatment, the cells were treated with 3 or 50 µM Psd1 for 30 or 60 min and maintained at the same temperature. Cells treated with only water or 0.0001% H2O2 for 30 min were used as the negative and positive controls, respectively. Washes with saline were carried out between the additions of each probe followed by incubation at room temperature. The cells were incubated with 1 µL of SG, 1.5 µL of MitoTracker Red CMXRos, and 2 µL of DAPI for 10, 20, and 10 min, respectively. The fluorescent images were acquired by confocal microscopy.

[1] = system: lung inflammatory cells, C57BL/6 mice; experiment: Lung histology (HE), inflammatory foci; type: in vivo, mouse
Description: Figure 7 Psd1 inhibited the appearance of inflammatory cells in lung tissues. Two animals from each group of the in vivo experiment were anaesthetized and submitted to transcardial perfusion for further histological procedures. The lungs were removed and prepared for hematoxylin and eosin (HE) staining as described in the Materials and Methods. (A) Representative images from the lungs of one animal from each experimental group. […] The left and right panels indicate 10× and 20× magnifications, and the bars represent 200 and […], respectively. (B) Quantification of inflammatory infiltration (± SEM) was obtained in six fields, corresponding to 90% of the tissue. […] Values represent the mean ± SD of two independent experiments analyzed by one-way ANOVA and Bonferroni’s multiple comparison test.
After the above procedure, two animals from each group were anaesthetized and submitted to treatment with 4% paraformaldehyde in 0.1 M phosphate buffer (pH 7.4) by transcardial perfusion. The lung was removed and immersed in the same fixative solution. The lung specimens were sliced into 5 mm pieces, dehydrated through an ascending ethanol series (70, 95, and 100% ethanol for 30 min each) and then embedded in paraffin using standard procedures. Serial 5 µm-thick sections were prepared using a sliding microtome (Leica Microsystems, Wetzlar, Germany). Hematoxylin and eosin (HE) staining wereperformed to quantify possible foci of inflammatory infiltrates and fibrosis in experimental and control animals. The stained sections were observed, and digital images were taken with a Zeiss AxioPhot fluorescence microscope (Carl-Zeiss, Oberkochen, Germany). Specifically, two slices of each sample (six fields of each slice corresponding to approximately 90% of the slice) were used for quantitative analysis to obtain the mean value.

[2] = system: Fusarium solani planktonic cells; design: method as in PMID 17240982; details: cited from earlier work

Substance: Psd1: 46-amino acid residue plant defensin isolated from pea seeds, expressed in Pichia pastoris (PDB 1JKZ) (KTCEHLADTYRGVCFTNASCDDHCKNKAHLISGTCHNWKCFCTQNC)
- SYTOXGreen entrance, nuclear staining (B16F10 cells; 3 µM and 50 µM, 30 min, 37 °C): intense green nuclear staining
- Cell adhesion / shape (B16F10 cells; 50 µM, 1 h): started to lose their adhesion capacity, assuming a less spread shape
- SYTOXGreen fluorescence signal (B16F10 cells; 50 µM, 1 h, 37 °C, p < 0.0001 vs 3 and 50 µM for 30 min): increased significantly
- Inflammatory foci, Psd1 alone ([1]; 1 mg/kg Psd1 alone, i.v., day 21, p < 0.001 vs B16F10): very low inflammatory foci
- Number of lung inflammatory cells ([1]; 1 mg/kg Psd1 i.v. with B16F10 cells): near zero
- Accumulation of lung inflammatory cells ([1]; 1 and 3 mg/kg Psd1 i.v. with B16F10 cells, day 21, p < 0.001 vs B16F10): significant reduction in the accumulation of inflammatory cells
- Internalization and cell cycle effect [2]: internalized in Fusarium solani planktonic cells, directing their cell cycle impairment and causing fungal endoreduplication

Reference: publication PMC7219108, “Pisum sativum Defensin 1 Eradicates Mouse Metastatic Lung Nodules from B16F10 Melanoma Cells” (International Journal of Molecular Sciences, 2020)
